# Experimental data as given in patent publication US20030186869A1, “Polymer compositions comprising antifibrotic agents, and methods of treatment, pharmaceutical compositions, and methods of preparation therefor” (priority 1990, published 2003).
# How the values were obtained:
# RFL-6 cells = test: IC50 experiment, cytotoxicity / growth inhibition of RFL-6 rat fibroblast cells; assay type: cell-based
# Procedure: In this test two different synthesis batches of cis-hydroxyproline (CHOP) linked to PEG were tested, along with free CHOP. […] The differences between the two batches of CHOP-PEG are not significant.
# [1] = tested on: Sprague-Dawley rats housed under hypoxic conditions (10% O2); test: Hypoxic rat model of pulmonary hypertension, CHOP-PEG; assay type: in vivo; details: 10 mg in 7-day minipump
# [2] = tested on: Sprague-Dawley rats housed under hypoxic conditions (10% O2); test: as above; assay type: in vivo
# Procedure: The anti-pulmonary hypertensive activity of the polymer compositions was tested in the hypoxic rat model (as described in detail above). […] PH is manifested histologically by vascular remodeling (collagen accumulation and fibroblastic hypertrophy), increased right ventricular work-load, thickening of the pulmonary artery, and hypertrophy of the right ventricular cardiac wall. […] Drug treatment can take place during the acute induction phase (days 0-7) or following the establishment of experimental PH (day 7 or later). Intravenous (i.v.), subcutaneous (s.c.), intra-tracheal instillation, and osmotic minipump delivery have been tested. Experiments are scored by obtaining the mean RVP measurement. Results are expressed as either RVP in mm Hg, or preferably as the reduction in the RVP by the formula: […] On day 7 the RVP was measured and compared to animals maintained in normoxic conditions (10.4 mm Hg) and to untreated animals kept in hypoxic conditions (19.3 mm Hg).
substance,measurement,setting,value
poly(PEG-Lys-cHyp amide) [CHOP-PEG],IC50,"RFL-6 cells; PEG construct, mean ± SD (n), read-out: IC50, AA-Lys-PEG",5.6 ± 1.5 mM
same,"inhibition of rat fibroblast growth, polymeric constructs versus free amino acid","RFL-6 cells; two synthesis batches (1 and 2), FIG. 15",to a similar extent
same,reduction of RVP,[1]; day 10,56%
same,reduction of RVP,[1]; day 14,45%
same,reduction of RVP at minimum maximally effective dose,"[2]; 0.8 mg total dose per animal, acute PH",> 70%
same,reduction of RVP,"[2]; 10 mg in 7-day minipump, day 7",74%
same,reduction of RVP,"[2]; 7-day miniosmotic pump, both drug treated groups (1 or 4 mg, FIG. 18)",76%
same,reduction of RVP,"[2]; 7-day minipump, 1.0 mg",more than 50%
same,reduction of RVP,[2]; intratracheal instillation 90 mg on days 0 and 2,51%
same,RVP,"[2]; intratracheal instillation 90 mg on days 0 and 2, reduced from 20",15 mm Hg
same,effect on RVP in rats under normoxic conditions,"[2]; normoxic, intratracheal instillation, similar treatment",no effect
same,reduction of RVP,"[2]; single i.v. dose 0.8 mg on day 0, RVP on day 7",~50%
same,reduction of RVP,"[2]; subcutaneous route, 7 day hypoxic rat model",minimal reduction of RVP
same,minimum dose that reduces RVP maximally in acute PH,[2]; total dose per animal,0.8 mg
